How the values were obtained:
Assay in all cases: relative viability (nuclei count vs DMSO), 5 days (fraction); higher = more cells survive
[1] = compound: C1=CC=C(C(=C1)C2=CC=C(C=C2)C3=CSC4=C3C(=C(C(=O)N4)C#N)O)O + Cc1cc(Nc2cc(N3CCN(C)CC3)nc(Sc3ccc(NC(=O)C4CC4)cc3)n2)n[nH]1 [Tozasertib] (partner 0.1 µM)
Outline: (§1)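 Lung cancer cell lines, seeded in 1536-well plates, were treated the following day by pin tool with a single drug or with five library-drug doses (not always all listed) in √10 steps on top of a fixed anchor-drug dose. Cells were fixed and nuclei stained in one step after 5 days, and nuclei were counted. Relative viability is the nuclei count for treated wells divided by that for vehicle wells, reported as medians of duplicate plates.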

[2] = compound: C1=CC=C(C(=C1)C2=CC=C(C=C2)C3=CSC4=C3C(=C(C(=O)N4)C#N)O)O + COc1cc2c(Oc3ccc(NC(=O)C4(C(=O)Nc5ccc(F)cc5)CC4)cc3F)ccnc2cc1OCCCN1CCOCC1 [Foretinib] (partner 0.25 µM)
Outline: as §1

[3] = compound: C1=CC=C(C(=C1)C2=CC=C(C=C2)C3=CSC4=C3C(=C(C(=O)N4)C#N)O)O + CC(=O)Nc1cccc(-n2c(=O)n(C3CC3)c(=O)c3c(Nc4ccc(I)cc4F)n(C)c(=O)c(C)c32)c1 [Trametinib] (partner 0.02 µM)
Outline: as §1

Ricolinostat + Foretinib = compound: O=C(CCCCCCNC(=O)c1cnc(N(c2ccccc2)c2ccccc2)nc1)NO [Ricolinostat] + COc1cc2c(Oc3ccc(NC(=O)C4(C(=O)Nc5ccc(F)cc5)CC4)cc3F)ccnc2cc1OCCCN1CCOCC1 [Foretinib] (partner 0.25 µM)
Outline: as §1

| Cell Line | relative viability ([1]; first compound 0.08 µM) | relative viability ([1]; first compound 0.253 µM) | relative viability ([1]; first compound 2.53 µM) | relative viability ([1]; first compound 8 µM) | relative viability ([2]; first compound 0.08 µM) | relative viability ([2]; first compound 0.253 µM) | relative viability ([2]; first compound 2.53 µM) | relative viability ([2]; first compound 8 µM) | relative viability ([3]; first compound 0.08 µM) | relative viability ([3]; first compound 0.253 µM) | relative viability ([3]; first compound 0.8 µM) | relative viability ([3]; first compound 2.53 µM) | relative viability ([3]; first compound 8 µM) | relative viability (Ricolinostat + Foretinib; first compound 0.08 µM) | relative viability (Ricolinostat + Foretinib; first compound 0.253 µM) | relative viability (Ricolinostat + Foretinib; first compound 0.8 µM) | relative viability (Ricolinostat + Foretinib; first compound 2.53 µM) | relative viability ([1]; first compound 0.8 µM) | relative viability ([2]; first compound 0.8 µM) |
| --- | --- | --- | --- | --- | --- | --- | --- | --- | --- | --- | --- | --- | --- | --- | --- | --- | --- | --- | --- |
| NCI-H1915 | 0.428 | 0.484 | 0.491 | 0.382 | 1.12 | 1.24 | 1.08 | 0.747 | 0.304 | 0.303 | 0.505 | 0.314 | 0.316 | 1.07 | 1.03 | 1.07 | 1.03 |  |  |
| NCI-H1944 | 0.269 | 0.281 | 0.251 | 0.228 | 0.88 | 0.863 | 0.935 | 0.904 | 0.459 | 0.396 | 0.357 | 0.423 | 0.434 | 0.828 | 0.835 | 0.689 | 0.641 | 0.269 | 0.987 |
| NCI-H1975 | 0.54 | 0.742 | 1.02 | 0.651 | 0.889 | 0.822 | 1 | 0.84 | 0.348 | 0.412 | 0.337 | 0.311 | 0.345 | 1.04 | 0.975 | 0.822 | 0.917 | 0.826 | 0.967 |
| NCI-H1993 | 0.592 | 0.524 | 0.592 | 0.571 | 0.67 | 0.52 | 0.76 | 0.723 | 0.479 | 0.502 | 0.495 | 0.565 | 0.542 |  | 0.893 | 0.854 | 0.856 | 0.534 | 0.765 |
| NCI-H2009 | 0.789 | 0.706 | 0.73 | 0.683 | 1.18 | 1.24 | 1.28 | 1.19 | 0.226 | 0.268 | 0.333 | 0.249 | 0.295 | 1.16 | 1.19 | 1.2 | 1.05 | 0.719 | 1.3 |
| NCI-H2023 | 0.257 | 0.38 | 0.476 | 0.439 | 0.838 | 0.939 | 0.903 | 0.76 | 0.364 | 0.584 | 0.708 | 0.535 | 0.466 |  | 0.799 | 0.786 | 0.742 | 0.38 | 0.763 |
| NCI-H2085 | 0.8 | 0.801 | 0.749 | 0.74 | 1.05 | 0.9 | 0.852 | 0.797 | 0.55 | 0.772 | 0.615 | 0.484 | 0.598 |  | 0.867 | 1.02 | 0.783 | 0.874 | 0.958 |
| NCI-H2087 | 0.213 | 0.258 | 0.244 | 0.2 | 1.35 | 1.27 | 1.11 | 0.792 | 0.283 | 0.285 | 0.206 | 0.208 | 0.202 |  | 1.09 | 1.07 | 1.05 | 0.225 | 1.06 |
| NCI-H2126 | 0.687 | 0.956 | 0.923 | 0.809 | 1.41 | 1.22 | 1.15 | 1.01 | 0.611 | 0.51 | 0.571 | 0.54 | 0.476 | 0.864 | 1.23 | 1.16 | 1 | 0.893 | 1.43 |
| NCI-H2170 | 0.71 | 0.709 | 0.721 | 0.634 | 0.951 | 1.03 | 1.03 | 0.932 | 0.87 | 0.979 | 0.865 | 0.986 | 0.778 | 0.915 | 0.973 | 0.983 | 1.01 | 0.875 | 0.988 |
| NCI-H2228 | 0.288 | 0.244 | 0.297 | 0.277 | 0.764 | 0.871 | 0.847 | 0.588 | 0.342 | 0.459 | 0.544 | 0.458 | 0.465 | 0.754 | 1.04 | 0.783 | 0.738 | 0.245 | 0.96 |
| NCI-H2342 | 0.498 | 0.493 | 0.399 | 0.48 | 1.01 | 1.1 | 1.03 | 0.856 | 0.754 | 0.88 | 0.794 | 0.681 | 0.68 | 0.88 | 0.975 | 1.19 | 1.07 | 0.543 | 1.1 |
| NCI-H2347 | 0.574 | 0.461 | 0.526 | 0.583 | 0.845 | 0.923 | 1.01 | 0.735 | 0.287 | 0.304 | 0.243 | 0.255 | 0.286 |  | 1.04 | 0.792 | 0.802 | 1.06 | 0.951 |
| NCI-H2405 | 0.718 | 0.797 | 0.725 | 0.704 | 1.05 | 1.04 | 1.01 | 0.983 | 0.55 |  | 0.639 | 0.601 | 0.574 | 0.927 | 1.05 | 1.07 | 1.11 | 0.733 | 1.01 |
| NCI-H3122 | 0.355 | 0.451 | 0.507 | 0.419 | 0.954 | 1.05 | 1.06 | 0.978 | 0.289 | 0.233 | 0.223 | 0.253 | 0.295 | 0.98 | 0.959 | 1.08 | 1.13 | 0.451 | 1.01 |
| PC-3 [JPC-3] | 0.606 | 0.401 | 0.876 | 0.716 | 1.05 | 1.01 | 1.05 | 0.995 | 0.756 | 0.789 | 0.683 | 0.701 | 0.692 |  | 0.933 | 0.969 | 0.827 | 0.928 | 1.02 |
| PC-14 | 0.63 | 0.753 | 0.556 | 0.436 | 0.887 | 1.24 | 1.03 | 0.826 | 0.758 | 0.925 | 0.912 | 0.792 | 0.623 | 0.954 | 0.898 | 0.892 | 0.828 | 0.542 | 0.911 |
